Some test systems named below: A549 NSCLC; DLD-1 colon; DMS 114 small cell lung; HCT-116 colon; HOP-62 NSCLC; IGROV1 ovarian; K-562 leukemia; OVCAR-4 ovarian; OVCAR-8 ovarian; RXF 393 renal; SNB-75 CNS; ACHN renal; M14 melanoma.
Experiment in all cases: NCI tumour cell line growth inhibition, 48 h

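Five concentrations, 48 hours, 96-well plates. GI50 is the concentration that inhibits growth by half. TGI: total growth inhibition.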

Regarding `COc1cc(C2c3cc4c(cc3[C@@H](Nc3cnc5ccccc5c3)C3COC(=O)[C@H]23)OCO4)cc(OC)c1O` (some centres undefined), the TGI with A549 NSCLC was 0.789 µM; in the assay with DLD-1 colon, 3.69 µM; in the assay on DMS 114 small cell lung it was 1.82 µM; with HCT-116 colon it was 2.26 µM; in the assay with HOP-62 NSCLC, 0.481 µM; in the assay with IGROV1 ovarian, 10.4 µM. Further, the TGI in the assay with K-562 leukemia worked out at 7.33 µM; with OVCAR-4 ovarian, 4.43 µM; with OVCAR-8 ovarian it was 5 µM; in the assay with RXF 393 renal it was 3 µM.

As to `O=C1Sc2sc(=S)sc2SC1c1ccccc1` (centres undefined), the TGI with A549 NSCLC was > 100 µM; in the assay on DLD-1 colon, > 90.9 µM; in the assay with DMS 114 small cell lung, > 100 µM; in the assay with HCT-116 colon, > 100 µM; in the assay on HOP-62 NSCLC, > 100 µM; with IGROV1 ovarian it was > 100 µM. The TGI in the assay on K-562 leukemia was > 70.7 µM; with OVCAR-4 ovarian it was > 31.6 µM; in the assay on OVCAR-8 ovarian, > 100 µM; with RXF 393 renal, 76.6 µM; with SNB-75 CNS it was > 81.4 µM.

For the compound `C=CCn1c(C)nc2cc(Nc3nc(N4CCCC4)nc4nc[nH]c34)ccc21`, the GI50 in the assay on ACHN renal was > 100 µM; in the assay on IGROV1 ovarian, > 100 µM; with M14 melanoma, 29.6 µM; with RXF 393 renal it was > 100 µM. The TGI with ACHN renal, in the assay with IGROV1 ovarian, in the assay on M14 melanoma and in the assay with RXF 393 renal was > 100 µM throughout.

For the compound `C=C1C(=O)OC2/C=C(CO)/C=C\C3OC3(C)CC(OC(=O)/C(C)=C/COC(C)=O)C12` (centres undefined), the TGI was found to be 28.5 µM in the assay with A549 NSCLC; 9.16 µM in the assay with ACHN renal; 2.49 µM in the assay on DLD-1 colon; 10.9 µM in the assay with DMS 114 small cell lung; 2.83 µM with HCT-116 colon; 35.5 µM in the assay with HOP-62 NSCLC. The TGI is 23.9 µM in the assay on IGROV1 ovarian; > 20.7 µM in the assay on K-562 leukemia; 5.64 µM in the assay with M14 melanoma; 16.4 µM in the assay on OVCAR-4 ovarian; 7 µM in the assay on OVCAR-8 ovarian; 4.12 µM in the assay on RXF 393 renal. In the assay with SNB-75 CNS, the TGI is 20.7 µM.

Regarding `Nc1nc2cc(COc3ccc(C(=O)O)cc3)ccc2nc1-c1ccccc1`, the TGI with A549 NSCLC, in the assay on ACHN renal, with HOP-62 NSCLC, with IGROV1 ovarian, with K-562 leukemia and with M14 melanoma was > 10 µM each time. The TGI with OVCAR-4 ovarian, with RXF 393 renal and with SNB-75 CNS was > 10 µM throughout.

`Cc1c2cnccc2c(C)c2c1c1ccccc1n2CCCCCCCl`: the TGI in the assay on A549 NSCLC, in the assay on DLD-1 colon, in the assay on DMS 114 small cell lung, in the assay on HCT-116 colon, with HOP-62 NSCLC and in the assay on IGROV1 ovarian was > 50 µM in each case. Moreover, the TGI in the assay with K-562 leukemia was > 50 µM; with OVCAR-4 ovarian, > 29.3 µM; in the assay with OVCAR-8 ovarian, > 50 µM; in the assay on RXF 393 renal, > 50 µM; in the assay on SNB-75 CNS it was > 31.6 µM.

Regarding `C=C1C(=O)OC2/C=C(\CO)C3OC3C3OC3(C)CC(OC(=O)/C(=C/C)COC(C)=O)C12` (centres undefined), the TGI in the assay on A549 NSCLC was found to be 36.9 µM; in the assay with ACHN renal it was 9.68 µM; with DLD-1 colon, 2.53 µM; with DMS 114 small cell lung, 13.2 µM; in the assay with HCT-116 colon, 2.96 µM; in the assay with HOP-62 NSCLC, 40.4 µM. Moreover, the TGI with IGROV1 ovarian was 29.5 µM; in the assay with K-562 leukemia, > 100 µM; with M14 melanoma it was 6.64 µM; with OVCAR-4 ovarian, 24.1 µM; in the assay on OVCAR-8 ovarian, 6.22 µM; in the assay on RXF 393 renal it was 3.96 µM. The same compound registered a TGI in the assay with SNB-75 CNS of 23 µM.

Consider `O=C(N/N=C/c1cc(Cl)cc(Cl)c1[O-])c1ccccc1O.O=C(N/N=C/c1cc(Cl)cc(Cl)c1[O-])c1ccccc1O.[Mn+2]`, for which the GI50 is 0.377 µM with A549 NSCLC and 0.423 µM in the assay on HCT-116 colon. In addition, the TGI with A549 NSCLC was found to be 11.6 µM; in the assay on ACHN renal it was 11.9 µM; with HCT-116 colon, 13.8 µM; in the assay on K-562 leukemia, 17.2 µM; in the assay on M14 melanoma it was 2.51 µM; in the assay on OVCAR-4 ovarian, 1.58 µM. Besides, the TGI with OVCAR-8 ovarian turned out to be 2.3 µM; in the assay with RXF 393 renal it was 5.7 µM; in the assay on SNB-75 CNS, 22.9 µM.

Turning to `CS(C)(=O)=Nn1c(=O)n2n(c1=O)[C@H]1CC[C@@H]2C1`, the TGI in the assay with A549 NSCLC, with ACHN renal, with HOP-62 NSCLC, in the assay with IGROV1 ovarian, with K-562 leukemia and in the assay with M14 melanoma was > 100 µM in each case. The TGI with OVCAR-8 ovarian, in the assay with RXF 393 renal and in the assay with SNB-75 CNS was > 100 µM in each case.

For the compound `CSc1nc2c(ncn2C2OC(CO)C(O)C(O)C2O)c(=O)n1C` (centres undefined), the TGI with A549 NSCLC, in the assay on DLD-1 colon, in the assay on DMS 114 small cell lung, with HCT-116 colon, with HOP-62 NSCLC and with IGROV1 ovarian was > 100 µM each time. For the same compound, the TGI in the assay on K-562 leukemia, in the assay with OVCAR-4 ovarian, in the assay on OVCAR-8 ovarian, in the assay with RXF 393 renal and in the assay with SNB-75 CNS was > 100 µM throughout.

For the compound `O=C(O)C(C1NCCS1)N1C(=O)c2ccccc2C1=O` (centres undefined), the TGI with A549 NSCLC, in the assay with ACHN renal, with HCT-116 colon, in the assay with HOP-62 NSCLC, in the assay with IGROV1 ovarian and in the assay on K-562 leukemia was > 100 µM each time. Further, the TGI in the assay on M14 melanoma, in the assay on OVCAR-4 ovarian, in the assay with OVCAR-8 ovarian, with RXF 393 renal and with SNB-75 CNS was > 100 µM in each case.

As for `COc1ccc2[nH]c(=O)cc(C)c2c1[N+](=O)[O-]`, the TGI in the assay with A549 NSCLC, with ACHN renal, in the assay on DLD-1 colon, in the assay with DMS 114 small cell lung, in the assay with HCT-116 colon and in the assay with HOP-62 NSCLC was > 100 µM in each case. For the same compound, the TGI with IGROV1 ovarian was > 100 µM; in the assay on K-562 leukemia, > 100 µM; in the assay on M14 melanoma, > 100 µM; in the assay with OVCAR-4 ovarian, > 100 µM; in the assay on OVCAR-8 ovarian, > 100 µM; with SNB-75 CNS it was 55.7 µM.

Values taken from PubChem BioAssay (NCI).
